Results reported in patent US6855707B2, “Method for the treatment of lipid and glucose metabolism disorders” (Pliva D.D., priority 1996, dated 2005).

Legend:
C57BL/6 ob/ob mice = experiment: Example 2: two-week treatment of C57BL/6 ob/ob mice at 1 HALO; assay type: in vivo; details: for reduction of plasma free fatty acid level / reduction of plasma glucose concentration / reduction of plasma insulin level / reduction of plasma triglyceride level: mouse, in vivo; for Food Consumption / Plasma FFA / Plasma Glucose / Plasma Insulin / Plasma TG / Whole Body Lipid-Glycerol (% BW) / Whole Body Lipid-Glycerol (g) / Whole Body Protein (% BW) / Whole Body Protein (g) / Final Body Weight: ob/ob mice, two weeks; for Final Body Weight: sacrificed 24-26 hours after last treatment; for reducing body weight gain: single drug 10 mg/kg, two weeks at 1 HALO
Experimental: Different groups of 6-week old C57BL/6 ob/ob mice (lacking a functional leptin protein) were treated with either bromocriptine (“BC”) (10 mg/kg BW), SKF38393 (“SKF”) (10 mg/kg BW), both drugs, or vehicle for two weeks at 1 hour after light onset (HALO). Animals were held on 12-hour daily photoperiods and allowed to feed ad libitum. Food consumption was monitored daily for 3 days before the initiation of treatment throughout the 14-day treatment period. Animals were sacrificed between 1 and 3 HALO on the day following the final treatment (i.e., 24-26 hours after last injection) and plasma was collected for the analyses of insulin, glucose, and lipids while the carcasses were solubilized in ethanolic KOH and analyzed for protein and lipid content. Bromocriptine and SKF38393, individually, were ineffective in reducing body weight gain where as SKF, but not BC, reduced food consumption (19%, P<0.01). However, the combined treatment of bromocriptine and SKF38393 (BC/SKF) decreased food consumption by 46% (from 4.8±0.2 to 2.6±g/day; P<0.001) and body weight by 15% (from a 3.2 g increase in controls to a 4.3 g decrease; P<0.005) in 14 days of treatment (FIG. 16). Relative to controls, in absolute terms, the lipid content of the BC/SKF treated animals was decreased by 40% (from 4.2±0.2 to 2.5±0.3 g glycerol/animal; P<0.0003) whereas the protein content increased 8% (from 3.7±0.08 to 4.0±0.08 g/animal; P<0.05). […] This effect on body composition was observed by SKF (P<0.003) or BC (P<0.04) treatments alone, although to a lesser extent than by BC/SKF combination (P<0.05).

ob/ob mice = experiment: Example 1: two-week treatment of female ob/ob mice (40-70 g) at light onset; assay type: in vivo; details: single drug, two weeks at light onset
Experimental: Female ob/ob mice (40-70 g bw) were treated for two weeks with either 1) bromocriptine (11 mg/kg) at light onset, 2) SKF38393 (20 mg/kg) at light onset, 3) bromocriptine plus SKF38393 at light onset, or 4) vehicle at light onset.

[1] = timed bromocriptine monotherapy, diastolic blood pressure; assay type: in vivo; details: humans, 4.8 mg/day at 8:00 AM
From the text: The benefits of the invention are not limited to modifying and regulating lipid and glucose metabolism. Other bodily functions, such as blood pressure, can be beneficially modified and regulated by timed administration of a D2 agonist (as monotherapy) in the dosage range disclosed above. […] Conjoined administration of a dopamine D1 agonist and […]

HMG-CoA reductase = biological target: T1, HMG-CoA reductase (Homo sapiens, UniProt P04035); details: in vivo; cited from earlier work
T1 sequence (P04035 1-888): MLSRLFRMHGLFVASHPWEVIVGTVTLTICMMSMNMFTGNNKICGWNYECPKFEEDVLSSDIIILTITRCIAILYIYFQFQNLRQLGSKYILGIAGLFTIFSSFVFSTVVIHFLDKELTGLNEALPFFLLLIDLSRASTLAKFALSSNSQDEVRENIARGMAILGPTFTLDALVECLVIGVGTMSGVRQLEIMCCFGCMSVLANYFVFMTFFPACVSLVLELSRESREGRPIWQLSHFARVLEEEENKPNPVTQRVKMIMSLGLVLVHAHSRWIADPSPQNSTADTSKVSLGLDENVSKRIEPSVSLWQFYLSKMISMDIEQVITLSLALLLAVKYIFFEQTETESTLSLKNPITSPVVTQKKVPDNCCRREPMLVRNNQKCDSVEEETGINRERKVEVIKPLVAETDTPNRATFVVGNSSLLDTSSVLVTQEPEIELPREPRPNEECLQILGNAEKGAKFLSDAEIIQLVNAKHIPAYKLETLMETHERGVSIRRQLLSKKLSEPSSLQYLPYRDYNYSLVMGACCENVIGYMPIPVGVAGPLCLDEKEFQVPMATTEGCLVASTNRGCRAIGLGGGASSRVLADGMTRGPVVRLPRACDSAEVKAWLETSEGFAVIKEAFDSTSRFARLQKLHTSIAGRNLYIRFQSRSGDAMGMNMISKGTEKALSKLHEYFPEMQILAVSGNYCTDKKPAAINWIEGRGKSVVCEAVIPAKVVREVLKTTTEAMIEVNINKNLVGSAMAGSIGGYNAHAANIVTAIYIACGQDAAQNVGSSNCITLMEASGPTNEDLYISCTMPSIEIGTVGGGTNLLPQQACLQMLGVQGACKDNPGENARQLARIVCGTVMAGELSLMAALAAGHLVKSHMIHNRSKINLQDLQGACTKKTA

SMILES | reduction of food consumption (C57BL/6 ob/ob mice; BC 10 mg/kg, SKF 10 mg/kg, 14 days) [%] | reduction of plasma free fatty acid level (C57BL/6 ob/ob mice) | reduction of plasma glucose concentration (C57BL/6 ob/ob mice) [%] | reduction of plasma insulin level (C57BL/6 ob/ob mice) | reduction of plasma triglyceride level (C57BL/6 ob/ob mice) | Food Consumption (C57BL/6 ob/ob mice) | Plasma FFA (C57BL/6 ob/ob mice) | Plasma Glucose (C57BL/6 ob/ob mice) | Plasma Insulin (C57BL/6 ob/ob mice) | Plasma TG (C57BL/6 ob/ob mice) | Whole Body Lipid-Glycerol (% BW) (C57BL/6 ob/ob mice) | Whole Body Lipid-Glycerol (g) (C57BL/6 ob/ob mice) | Whole Body Protein (% BW) (C57BL/6 ob/ob mice) | Whole Body Protein (g) (C57BL/6 ob/ob mice) | Final Body Weight (C57BL/6 ob/ob mice) | reducing body weight gain (C57BL/6 ob/ob mice) | reductions in hyperphagia, body weight gain, and obesity (ob/ob mice) | diastolic blood pressure [1] | increase in HDL concentrations (HMG-CoA reductase)
Oc1cc2c(cc1O)C(c1ccccc1)CNCC2 (centres unmarked) [SKF38393] | 19 | neither BC nor SKF individually, reduced | 43 | not affected | neither BC nor SKF individually, reduced | 3.9 ± 0.07^3,4,5 g/day | 671 ± 36^3 uM | 218 ± 22^2 mg/dl | 50 ± 13 ng/mL | 234 ± 22^1 mg/dl | 6.0 ± 0.2^1 % BW | 3.1 ± 0.1^1 g | 7.9 ± 0.1^1 % BW | 4.1 ± 0.04^2 g | 52 ± 0.7^2 g | ineffective | moderate reductions | – | –
CC(C)C[C@H]1C(=O)N2CCC[C@H]2[C@]2(O)O[C@](NC(=O)[C@@H]3C=C4c5cccc6[nH]c(Br)c(c56)C[C@H]4N(C)C3)(C(C)C)C(=O)N12 [bromocriptine, 2-bromo-α-ergocriptine] | – | neither BC nor SKF individually, reduced | 31 | 50% | neither BC nor SKF individually, reduced | 4.5 ± 0.2^2,5 g/day | 818 ± 64^2 uM | 262 ± 25^1 mg/dl | 30 ± 4^2 ng/ml | 405 ± 101 mg/dL | 7.0 ± 0.2^1 % BW | 3.7 ± 0.1^1 g | 7.5 ± 0.1^1 % BW | 4.0 ± 0.1^1 g | 53 ± 0.7^2 g | ineffective | moderate reductions | decrease significantly | –
CC[C@H](C)C(=O)O[C@H]1C[C@@H](C)C=C2C=C[C@H](C)[C@H](CC[C@@H]3C[C@@H](O)CC(=O)O3)[C@H]21 [lovastatin] | – | – | – | – | – | – | – | – | – | – | – | – | – | – | – | – | – | – | 5-10%
